Assay results reported in US10905665B2, “Chemical modulators of signaling pathways and therapeutic use” (Duke University, priority 2015, dated 2021).
Values belong to the compound of their own block, whether it stands above or below them.

System: Wnt/β-catenin transcription
Test: Wnt-3A-stimulated TOPFlash reporter assay in HEK293 cells
Type: cell-based
Conditions: for IC50 / inhibition at 2 µM / inhibition at 10 µM: Homo sapiens, HEK293, 8 h; for IC50: Wnt-3A conditioned medium, 8 hour treatment, read-out: Inhibition Wnt/β-catenin transcription TopFlash IC50
Description: Stably transfected cells were seeded in 100 μl of cell growth medium/well in 96-well plates at 100% confluency. Fifty microliters of Wnt-3A conditioned medium containing the chemical compounds to be tested or DMSO was added to each well. After an 8 hour treatment, the cells were washed once with PBS and lysed with 55 μl of Passive Lysis Buffer supplied in the Dual-Luciferase Reporter Assay kit (Promega, Madison, Wis.). Twenty-five microliters of cell lysate was used for measuring luciferase activity in a 96-well plate reader (FluoStar Optima, BMG Labtech, Chicago, Ill.). Data were fit using GraphPad Prism (mean±SEM, n>=2).

IC50: 500 nM
Structure (SMILES): CCCCCCC(=O)Oc1ccc(Cl)cc1C(=O)Nc1ccc([N+](=O)[O-])cc1Cl [Compound 63, 4-chloro-2-((2-chloro-4-nitrophenyl)carbamoyl)phenyl heptanoate]

Structure (SMILES): C#CCCCCOc1cc([N+](=O)[O-])ccc1NC(=O)c1cc(Cl)ccc1O [Compound 39, 5-chloro-N-(2-(hex-5-yn-1-yloxy)-4-nitrophenyl)-2-hydroxybenzamide]
inhibition at 2 µM: 80%

Structure (SMILES): O=C(Nc1ccc(OCc2ccccc2)c(Cl)c1)c1cc(Cl)ccc1O [Compound 27, N-(4-(benzyloxy)-3-chlorophenyl)-5-chloro-2-hydroxybenzamide]
inhibition at 2 µM: 75%

Structure (SMILES): O=C(Nc1ccc([N+](=O)[O-])c(F)c1)c1cc(Cl)ccc1O [Compound 32, 5-chloro-N-(3-fluoro-4-nitrophenyl)-2-hydroxybenzamide]
inhibition at 10 µM: 90%

Structure (SMILES): C=CCOc1cc([N+](=O)[O-])ccc1NC(=O)c1cc(Cl)ccc1OC(C)=O [Compound 60, 2-((2-(allyloxy)-4-nitrophenyl)carbamoyl)-4-chlorophenyl acetate]
inhibition at 2 µM: 80%

Structure (SMILES): O=C(Nc1ccc(C(F)(F)F)c(Cl)c1)c1cc(Cl)ccc1O [Compound 38, 5-chloro-N-(3-chloro-4-(trifluoromethyl)phenyl)-2-hydroxybenzamide]
inhibition at 2 µM: 90%

Structure (SMILES): COc1cc(O)c(C(=O)Nc2ccc(F)cc2Cl)cc1Cl [Compound 55, 5-chloro-N-(2-chloro-4-fluorophenyl)-2-hydroxy-4-methoxybenzamide]
inhibition at 10 µM: 70%

IC50: > 12000 nM
Structure (SMILES): O=C(Nc1c(F)cccc1F)c1cc(Cl)ccc1O [Compound 21, 5-chloro-N-(2,6-difluorophenyl)-2-hydroxybenzamide]

Structure (SMILES): O=C(Nc1ccc([N+](=O)[O-])cc1Cl)c1cc(-c2ccccc2)ccc1O [Compound 41, N-(2-chloro-4-nitrophenyl)-4-hydroxy-[1,1′-biphenyl]-3-carboxamide]
Inhibition Wnt/β-catenin transcription TopFlash, % inhibition @ 1 μM (1 μM): 90% inhibition

IC50: 33000 nM
Structure (SMILES): O=C(Nc1ccccc1)c1ccc(NC(=O)c2cc(Cl)ccc2O)cc1 [Compound 40, 5-chloro-2-hydroxy-N-(4-(phenylcarbamoyl)phenyl)benzamide]

Structure (SMILES): O=C(Nc1ccc(Br)cc1)c1cc(Br)ccc1O [D, 5-bromo-N-(4-bromophenyl)-2-hydroxybenzamide, reference compound]
inhibition at 2 µM: 60%

Structure (SMILES): Cc1cc([N+](=O)[O-])ccc1NC(=O)c1cc(Cl)ccc1O [Compound 26, 5-chloro-2-hydroxy-N-(2-methyl-4-nitrophenyl)benzamide]
Inhibition Wnt/β-catenin transcription TopFlash, % inhibition @ 3 μM (3 μM): 80% inhibition

IC50: 800 nM
Structure (SMILES): CCCCCCCCOC(=O)O/C(=N/c1ccc([N+](=O)[O-])cc1Cl)c1cc(Cl)ccc1OC(=O)OCCCCCCCC [Compound 79, 5-chloro-N-(2-chloro-4-nitrophenyl)-2-(((octyloxy)carbonyl)oxy)benzimidic (octyl carbonic) anhydride]

Structure (SMILES): O=C(Nc1ccc([N+](=O)[O-])cc1Cl)c1cc(Cl)ccc1OC(=O)N1CCOCC1 [Compound 71, 4-chloro-2-((2-chloro-4-nitrophenyl)carbamoyl)phenyl morpholine-4-carboxylate]
Inhibition Wnt/β-catenin transcription TopFlash, % inhibition @ 20 μM (20 μM): 60% inhibition

Structure (SMILES): O=C(Nc1ccc(C(F)(F)F)cc1Cl)c1c(O)ccc2ccccc12 [Compound 43, N-(2-chloro-4-(trifluoromethyl)phenyl)-2-hydroxy-1-naphthamide]
Inhibition Wnt/β-catenin transcription TopFlash, % inhibition @ 5 μM (5 μM): 50% inhibition

Structure (SMILES): Cc1ccc(S(=O)(=O)Nc2ccc(Br)cc2C(=O)Nc2ccc(C(F)(F)F)cc2)cc1 [Compound 48, 5-bromo-2-((4-methylphenyl)sulfonamido)-N-(4-(trifluoromethyl)phenyl)benzamide]
inhibition at 10 µM: 93%

Structure (SMILES): O=C(Nc1ccc([N+](=O)[O-])cc1Cl)c1cc(-c2ccc(F)cc2F)ccc1O [Compound 42, N-(2-chloro-4-nitrophenyl)-2′,4′-difluoro-4-hydroxy-[1,1′-biphenyl]-3-carboxamide]
inhibition at 2 µM: 90%
